Results: US11793849B2, “Method of Chinese herbal medicine extract used for treating multiple diseases caused by drug resistant bacteria infection” (priority 2016, dated 2023)
Converted amounts (≈) assume the structure as drawn. Like-named read-outs stand apart in the source and are kept apart here.

Assays:
[1] = tested on: MDRAB; experiment: MIC determination, microdilution broth method; format: cell-based, Acinetobacter baumannii
Description: Determination methods of a Minimal Inhibitory Concentration (MIC) and a Minimum Bactericidal Concentration (MBC) of a test product: the MIC and the MBC of the Pithecellobium clypearia Benth water or ethanol extract to the MDRAB are determined by a microdilution broth method. And it is operated by referring to the microdilution broth method recommended by National Committee for Clinical Laboratory Standards (NCCLS).

[2] = tested on: MDRAB; experiment: Checkerboard assay (combined-use MIC, FIC); format: cell-based, Acinetobacter baumannii; settings: for FIC, all strains / MIC50 of the antibiotic after combined use / reduction of the antibiotic's MIC50 vs single use / reduction of the antibiotic's MIC90 vs single use / share of strains with FIC ≤ 0.5: 20 MDRABs; for MIC: Acinetobacter baumannii, read-out: single-use MIC
Description: Test methods of the sensibilization effects of the test product to similar antibiotics: it is operated by referring to a checkerboard assay recommended by NCCLS.
The checkerboard assay is performed in a 96-pore sterile culture plate.
Calculation of a Fractional Inhibitory Concentration (FIC): FIC=S20b combined-use MIC/S20b single-use MIC+antibiotic combined-use MIC/antibiotic single-use MIC. By calculating the FIC, the combined antibacterial interaction between the EA and the antibiotic is evaluated, with synergistic effect for FIC≤0.5, additive effect for 0.5<FIC≤1, indifferent effect for 1<FIC≤2 and antagonistic effect for FIC>2. According to a sterile growth pore, the optimum concentration ratio between the EA and the antibiotic is founded out. At last, the effect of the EA to strengthen the efficacy of the antibiotic is evaluated.

[3] = tested on: ATCC27853; experiment: MIC determination, control strain; format: cell-based; settings: read-out: MIC
Description: Determination methods of a Minimal Inhibitory Concentration (MIC) and a Minimum Bactericidal Concentration (MBC) of a test product: the MIC and the MBC of the Pithecellobium clypearia Benth water or ethanol extract to the MDRAB are determined by a microdilution broth method.

[4] = antibiotic with 60% ethanol extract
[5] = antibiotic with 95% ethanol extract
[6] = antibiotic with EA (10% ethanol extract)
[7] = antibiotic with EA (water extract)

Q: With `CN(C)[C@@H]1C(O)=C(C(N)=O)C(=O)[C@@]2(O)C(O)=C3C(=O)c4c(O)cccc4[C@@](C)(O)[C@H]3C[C@@H]12` [TE, Tetracycline] as the compound, how does the MIC ([1]; Acinetobacter baumannii, strain A4, EA=60% ethanol extract, read-out: MIC) read?
A: 8 µg/mL (≈ 18 µM)

Q: What about the MIC ([1]; Acinetobacter baumannii, strain A4, EA=95% ethanol extract, read-out: MIC) of the same compound?
A: 8 µg/mL (≈ 18 µM)

Q: What about the MIC ([1]; Acinetobacter baumannii, strain A4, single use, EA=10% ethanol extract, read-out: MIC) of the same compound?
A: 8 µg/mL (≈ 18 µM)

Q: And the MIC ([1]; Acinetobacter baumannii, strain A4, single use, EA=water extract, read-out: MIC)?
A: 8 µg/mL (≈ 18 µM)

Q: What about the MIC ([1]; Acinetobacter baumannii, strain A5, EA=60% ethanol extract, read-out: MIC) of the same compound?
A: 32 µg/mL (≈ 72 µM)

Q: What about the MIC ([1]; Acinetobacter baumannii, strain A5, EA=95% ethanol extract, read-out: MIC) of the same compound?
A: 32 µg/mL (≈ 72 µM)

Q: And the MIC ([1]; Acinetobacter baumannii, strain A5, single use, EA=10% ethanol extract, read-out: MIC)?
A: 32 µg/mL (≈ 72 µM)

Q: What about the MIC ([1]; Acinetobacter baumannii, strain A5, single use, EA=water extract, read-out: MIC) of the same compound?
A: 32 µg/mL (≈ 72 µM)

Q: And the MIC ([1]; strain A15, single use, EA=10% ethanol extract)?
A: 1024 µg/mL (≈ 2300 µM)

Q: What about the MIC ([1]; strain A15, single use, EA=water extract) of the same compound?
A: 1024 µg/mL (≈ 2300 µM)

Q: What about the “FIC, all strains” value [2, 4] of the same compound?
A: ≤ 1

Q: What about the “MIC50 of the antibiotic after combined use” value (from here on “MIC50 of the antibiotic”) [2, 4] of the same compound?
A: 32 µg/mL

Q: What about the “reduction of the antibiotic's MIC50 vs single use” value [2, 4] of the same compound?
A: 87.5%

Q: What about the “reduction of the antibiotic's MIC90 vs single use” value [2, 4] of the same compound?
A: 75%

Q: And the “share of strains with FIC ≤ 0.5” value [2, 4]?
A: 50%

Q: What about the “FIC, all strains” value [2, 5] of the same compound?
A: ≤ 1

Q: What about the “MIC50 of the antibiotic” value [2, 5] of the same compound?
A: 32 µg/mL

Q: And the “reduction of the antibiotic's MIC50 vs single use” value [2, 5]?
A: 87.5%

Q: What about the “reduction of the antibiotic's MIC90 vs single use” value [2, 5] of the same compound?
A: 75%

Q: And the “share of strains with FIC ≤ 0.5” value [2, 5]?
A: 35%

Q: What about the “FIC, all strains” value [2, 6] of the same compound?
A: ≤ 1

Q: And the “MIC50 of the antibiotic” value [2, 6]?
A: 64 µg/mL

Q: What about the “reduction of the antibiotic's MIC50 vs single use” value [2, 6] of the same compound?
A: 75%

Q: What about the “reduction of the antibiotic's MIC90 vs single use” value [2, 6] of the same compound?
A: 50%

Q: And the “share of strains with FIC ≤ 0.5” value [2, 6]?
A: 45%

Q: What about the “FIC, all strains” value [2, 7] of the same compound?
A: ≤ 1

Q: What about the “MIC50 of the antibiotic” value [2, 7] of the same compound?
A: 64 µg/mL

Q: What about the “reduction of the antibiotic's MIC50 vs single use” value [2, 7] of the same compound?
A: 75%

Q: What about the “reduction of the antibiotic's MIC90 vs single use” value [2, 7] of the same compound?
A: 75%

Q: What about the “share of strains with FIC ≤ 0.5” value [2, 7] of the same compound?
A: 35%

Q: What about the MIC ([2]; strain A4, EA=60% ethanol extract) of the same compound?
A: 8 µg/mL

Q: And the MIC ([2]; strain A4, EA=95% ethanol extract)?
A: 8 µg/mL

Q: What about the MIC ([2]; strain A5 (printed AS in tables A43, A45), EA=95% ethanol extract) of the same compound?
A: 32 µg/mL

Q: What about the MIC ([2]; strain A5, EA=60% ethanol extract) of the same compound?
A: 32 µg/mL

Q: And the MIC ([2]; strain A15, EA=60% ethanol extract)?
A: 1020 µg/mL

Q: What about the MIC ([2]; strain A15, EA=95% ethanol extract) of the same compound?
A: 1020 µg/mL

Q: What about the “combined-use MIC” value ([2]; strain A1, EA (10% ethanol extract) with TE) of the same compound?
A: 1 µg/mL

Q: What about the “combined-use MIC” value ([2]; strain A1, EA (60% ethanol extract) + TE combined) of the same compound?
A: 1 µg/mL

Q: What about the “combined-use MIC” value ([2]; strain A1, EA (95% ethanol extract) + TE combined) of the same compound?
A: 1 µg/mL

Q: And the “combined-use MIC” value ([2]; strain A1, EA (water extract) with TE)?
A: 1 µg/mL

Q: And the “combined-use MIC” value ([2]; strain A2, EA (10% ethanol extract) with TE)?
A: 64 µg/mL

Q: And the “combined-use MIC” value ([2]; strain A2, EA (60% ethanol extract) + TE combined)?
A: 64 µg/mL

Q: And the “combined-use MIC” value ([2]; strain A2, EA (95% ethanol extract) + TE combined)?
A: 64 µg/mL

Q: What about the “combined-use MIC” value ([2]; strain A3, EA (10% ethanol extract) with TE) of the same compound?
A: 64 µg/mL

Q: And the “combined-use MIC” value ([2]; strain A3, EA (60% ethanol extract) + TE combined)?
A: 32 µg/mL

Q: And the “combined-use MIC” value ([2]; strain A3, EA (95% ethanol extract) + TE combined)?
A: 32 µg/mL

Q: And the “combined-use MIC” value ([2]; strain A3, EA (water extract) with TE)?
A: 64 µg/mL

Q: What about the “combined-use MIC” value ([2]; strain A4, EA (10% ethanol extract) with TE) of the same compound?
A: 2 µg/mL

Q: And the “combined-use MIC” value ([2]; strain A4, EA (60% ethanol extract) + TE combined)?
A: 1 µg/mL

Q: What about the “combined-use MIC” value ([2]; strain A4, EA (95% ethanol extract) + TE combined) of the same compound?
A: 1 µg/mL

Q: What about the “combined-use MIC” value ([2]; strain A4, EA (water extract) with TE) of the same compound?
A: 2 µg/mL

Q: What about the “combined-use MIC” value ([2]; strain A5, EA (10% ethanol extract) with TE) of the same compound?
A: 4 µg/mL

Q: And the “combined-use MIC” value ([2]; strain A5, EA (60% ethanol extract) + TE combined)?
A: 8 µg/mL

Q: What about the “combined-use MIC” value ([2]; strain A5, EA (95% ethanol extract) + TE combined) of the same compound?
A: 8 µg/mL

Q: What about the “combined-use MIC” value ([2]; strain A5, EA (water extract) with TE) of the same compound?
A: 4 µg/mL

Q: And the “combined-use MIC” value ([2]; strain A6, EA (10% ethanol extract) with TE)?
A: 64 µg/mL

Q: And the “combined-use MIC” value ([2]; strain A6, EA (water extract) with TE)?
A: 64 µg/mL

Q: And the “combined-use MIC” value ([2]; strain A8, EA (10% ethanol extract) with TE)?
A: 64 µg/mL

Q: What about the “combined-use MIC” value ([2]; strain A8, EA (60% ethanol extract) + TE combined) of the same compound?
A: 32 µg/mL

Q: And the “combined-use MIC” value ([2]; strain A8, EA (95% ethanol extract) + TE combined)?
A: 32 µg/mL

Q: And the “combined-use MIC” value ([2]; strain A9, EA (10% ethanol extract) with TE)?
A: 32 µg/mL

Q: And the “combined-use MIC” value ([2]; strain A9, EA (60% ethanol extract) + TE combined)?
A: 32 µg/mL

Q: What about the “combined-use MIC” value ([2]; strain A9, EA (95% ethanol extract) + TE combined) of the same compound?
A: 32 µg/mL

Q: And the “combined-use MIC” value ([2]; strain A9, EA (water extract) with TE)?
A: 64 µg/mL

Q: What about the “combined-use MIC” value ([2]; strain A10, EA (10% ethanol extract) with TE) of the same compound?
A: 32 µg/mL

Q: What about the “combined-use MIC” value ([2]; strain A10, EA (60% ethanol extract) + TE combined) of the same compound?
A: 32 µg/mL

Q: What about the “combined-use MIC” value ([2]; strain A10, EA (95% ethanol extract) + TE combined) of the same compound?
A: 32 µg/mL

Q: What about the “combined-use MIC” value ([2]; strain A10, EA (water extract) with TE) of the same compound?
A: 64 µg/mL

Q: What about the “combined-use MIC” value ([2]; strain A11, EA (10% ethanol extract) with TE) of the same compound?
A: 64 µg/mL

Q: What about the “combined-use MIC” value ([2]; strain A11, EA (60% ethanol extract) + TE combined) of the same compound?
A: 32 µg/mL

Q: What about the “combined-use MIC” value ([2]; strain A11, EA (95% ethanol extract) + TE combined) of the same compound?
A: 32 µg/mL

Q: What about the “combined-use MIC” value ([2]; strain A11, EA (water extract) with TE) of the same compound?
A: 64 µg/mL

Q: What about the “combined-use MIC” value ([2]; strain A14, EA (60% ethanol extract) + TE combined) of the same compound?
A: 32 µg/mL

Q: What about the “combined-use MIC” value ([2]; strain A14, EA (95% ethanol extract) + TE combined) of the same compound?
A: 32 µg/mL

Q: What about the “combined-use MIC” value ([2]; strain A14, EA (water extract) with TE) of the same compound?
A: 32 µg/mL

Q: What about the “combined-use MIC” value ([2]; strain A15, EA (60% ethanol extract) + TE combined) of the same compound?
A: 64 µg/mL

Q: And the “combined-use MIC” value ([2]; strain A15, EA (95% ethanol extract) + TE combined)?
A: 64 µg/mL

Q: And the “combined-use MIC” value ([2]; strain A15, EA (water extract) with TE)?
A: 64 µg/mL

Q: What about the “combined-use MIC” value ([2]; strain A16, EA (water extract) with TE) of the same compound?
A: 64 µg/mL

Q: And the “combined-use MIC” value ([2]; strain A17, EA (10% ethanol extract) with TE)?
A: 64 µg/mL

Q: What about the “combined-use MIC” value ([2]; strain A18, EA (60% ethanol extract) + TE combined) of the same compound?
A: 64 µg/mL

Q: What about the “combined-use MIC” value ([2]; strain A19, EA (water extract) with TE) of the same compound?
A: 64 µg/mL

Q: And the “combined-use MIC” value ([2]; strain A20, EA (60% ethanol extract) + TE combined)?
A: 32 µg/mL

Q: What about the “combined-use MIC” value ([2]; strain A20, EA (95% ethanol extract) + TE combined) of the same compound?
A: 32 µg/mL

Q: And the “combined-use MIC” value ([2]; strain A20, EA (water extract) with TE)?
A: 64 µg/mL

Q: And the MIC ([3]; EA=10% ethanol extract)?
A: 8 µg/mL (≈ 18 µM)

Q: And the MIC ([3]; EA=60% ethanol extract)?
A: 8 µg/mL (≈ 18 µM)

Q: And the MIC ([3]; EA=95% ethanol extract)?
A: 8 µg/mL (≈ 18 µM)

Q: And the MIC ([3]; EA=water extract)?
A: 8 µg/mL (≈ 18 µM)
